Results on 15 compounds are retold here after PubChem BioAssay (NCI).

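Five concentrations, 48 hours, 96-well plates. The concentration for 50% growth inhibition is given as GI50. TGI: total growth inhibition.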

Test systems include 786-0 renal; HCC-2998 colon; OVCAR-5 ovarian; OVCAR-8 ovarian; SK-MEL-2 melanoma; SK-MEL-5 melanoma; SK-OV-3 ovarian; UACC-257 melanoma; NCI-H226 lung.
Test in all cases: NCI tumour cell line growth inhibition, 48 h

For `Cc1ccc(S(=O)(=O)OCOS(=O)(=O)c2ccc(C)cc2)cc1`, the TGI in the experiment with 786-0 renal, in the experiment with HCC-2998 colon, in the experiment with OVCAR-5 ovarian, with OVCAR-8 ovarian, in the experiment with SK-MEL-2 melanoma and in the experiment with SK-MEL-5 melanoma was more than 100 µM in each case. Further, the TGI with SK-OV-3 ovarian and with UACC-257 melanoma was more than 100 µM throughout.

Regarding `N#Cc1c2ccccc2c(Cc2ccc3c(c2)OCCOCCOCCOCCOCCO3)c2ccccc12`, the TGI with 786-0 renal was 25.4 µM; in the experiment with HCC-2998 colon, 24.7 µM; in the experiment with NCI-H226 lung, 24.3 µM; with OVCAR-5 ovarian, 30.1 µM; in the experiment with OVCAR-8 ovarian, 18.3 µM; in the experiment on SK-MEL-2 melanoma, 19.9 µM. The results for the TGI in the experiment with SK-MEL-5 melanoma, in the experiment on SK-OV-3 ovarian and in the experiment with UACC-257 melanoma were 17.5 µM, 27.9 µM and 22.5 µM, respectively.

`Cc1ccccc1NC(=O)Cc1nc2ccccc2s1`: the TGI in the experiment on 786-0 renal turned out to be 31.6 µM; in the experiment with HCC-2998 colon, 64.9 µM; in the experiment with NCI-H226 lung, 34.9 µM; with OVCAR-5 ovarian, 36.3 µM; with OVCAR-8 ovarian, 32.4 µM; with SK-MEL-2 melanoma, 29.9 µM. The TGI in the experiment with SK-MEL-5 melanoma was more than 100 µM; with SK-OV-3 ovarian it was 43.3 µM; in the experiment on UACC-257 melanoma it was 30.8 µM.

In the case of `CC1(C)c2ccccc2N2C(c3ccccc3)=NOC21C` (centres undefined), the TGI in the experiment on 786-0 renal, in the experiment on NCI-H226 lung, in the experiment with OVCAR-5 ovarian, in the experiment on OVCAR-8 ovarian, with SK-MEL-2 melanoma and in the experiment on SK-MEL-5 melanoma was more than 100 µM in each case. Also, the TGI in the experiment on SK-OV-3 ovarian and with UACC-257 melanoma was more than 100 µM in each case.

As for `C[P+]1(Cc2ccccc2)CCCC1`, the TGI in the experiment on 786-0 renal, in the experiment on HCC-2998 colon, in the experiment with NCI-H226 lung, in the experiment on OVCAR-5 ovarian, in the experiment on OVCAR-8 ovarian and with SK-MEL-2 melanoma was more than 100 µM each time. Further, the TGI with SK-MEL-5 melanoma, in the experiment on SK-OV-3 ovarian and with UACC-257 melanoma was more than 100 µM in each case.

In the case of `CCOC(=O)C1=C(OC(OCC)C([Se]c2ccccc2)C(C)C)CCC1` (centres undefined), the TGI in the experiment on 786-0 renal is 20.6 µM; in the experiment on HCC-2998 colon it was more than 100 µM; with NCI-H226 lung, 37.4 µM; in the experiment with OVCAR-5 ovarian, 59.4 µM; in the experiment with OVCAR-8 ovarian it was 27.4 µM; in the experiment on SK-MEL-2 melanoma it was 62 µM. Also, the TGI in the experiment with SK-MEL-5 melanoma is 28.8 µM; with SK-OV-3 ovarian, more than 100 µM; in the experiment on UACC-257 melanoma, 75.4 µM.

`O=C(NC1CC1)c1c(O)[nH]c(=S)[nH]c1=O`: the TGI with 786-0 renal, in the experiment with NCI-H226 lung, in the experiment on OVCAR-5 ovarian, in the experiment with OVCAR-8 ovarian, with SK-MEL-2 melanoma and in the experiment on SK-MEL-5 melanoma was more than 100 µM in each case. In addition, the TGI in the experiment on SK-OV-3 ovarian and with UACC-257 melanoma was more than 100 µM throughout.

As for `CC(=O)[CH-]C(=O)c1ccccc1.CC(=O)[CH-]C(=O)c1ccccc1.Cl.[O-]c1ccnc2ccccc12.[O-]c1ccnc2ccccc12.[Ti+4]`, the GI50 with 786-0 renal, in the experiment on HCC-2998 colon, in the experiment with NCI-H226 lung, in the experiment on OVCAR-5 ovarian, in the experiment with OVCAR-8 ovarian and in the experiment on SK-MEL-2 melanoma was more than 100 µM each time. Further, the GI50 in the experiment on SK-MEL-5 melanoma, with SK-OV-3 ovarian and in the experiment with UACC-257 melanoma was more than 100 µM each time. The TGI in the experiment on 786-0 renal, with HCC-2998 colon, with NCI-H226 lung, in the experiment with OVCAR-5 ovarian, in the experiment with OVCAR-8 ovarian and in the experiment with SK-MEL-2 melanoma was more than 100 µM in each case. The TGI in the experiment on SK-MEL-5 melanoma, in the experiment with SK-OV-3 ovarian and with UACC-257 melanoma was more than 100 µM in each case.

For the compound `Cc1cccc(NC(=O)C(=O)C(C2OC(=O)c3ccccc32)[N+](=O)[O-])c1C` (centres undefined), the TGI in the experiment on 786-0 renal was 21.8 µM; with HCC-2998 colon, 27 µM; in the experiment on NCI-H226 lung, 26.4 µM; with OVCAR-5 ovarian, 33.3 µM; in the experiment with OVCAR-8 ovarian, 26.8 µM; with SK-MEL-2 melanoma it was 17.2 µM. Further, the TGI with SK-MEL-5 melanoma is 19.2 µM; with SK-OV-3 ovarian, 26.7 µM; in the experiment on UACC-257 melanoma it was 17.6 µM.

Consider `C/C=C/C(=O)Oc1cccc2cccnc12`, for which the TGI in the experiment with 786-0 renal was more than 100 µM; with HCC-2998 colon it was 46.1 µM; in the experiment with NCI-H226 lung, 68.6 µM; with OVCAR-5 ovarian, more than 100 µM; with OVCAR-8 ovarian, 54.3 µM; in the experiment with SK-MEL-5 melanoma, 51 µM. Besides, the results for the TGI in the experiment on SK-OV-3 ovarian and in the experiment on UACC-257 melanoma were more than 100 µM and 40.9 µM, respectively.

As for `CC(=O)OC1CCC2OOC1O2` (centres undefined), the TGI in the experiment on 786-0 renal, in the experiment with HCC-2998 colon, with NCI-H226 lung, in the experiment on OVCAR-5 ovarian, in the experiment on OVCAR-8 ovarian and in the experiment on SK-MEL-2 melanoma was more than 100 µM in each case. Besides, the TGI in the experiment on SK-MEL-5 melanoma, in the experiment with SK-OV-3 ovarian and in the experiment on UACC-257 melanoma was more than 100 µM each time.

For the compound `CN(C)NC(=O)/C(=C/c1ccc(Cl)cc1)NC(=O)c1ccccc1`, the TGI in the experiment on 786-0 renal, with HCC-2998 colon, in the experiment on NCI-H226 lung, with OVCAR-5 ovarian, with OVCAR-8 ovarian and with SK-MEL-2 melanoma was more than 100 µM each time. Also, the TGI in the experiment on SK-MEL-5 melanoma, in the experiment on SK-OV-3 ovarian and in the experiment with UACC-257 melanoma was more than 100 µM throughout.

On to `Cn1[nH]cc2ccc3nc4ccccc4c(=O)c3c21`, for which the TGI with 786-0 renal is more than 100 µM; in the experiment with HCC-2998 colon, 90.5 µM; in the experiment with NCI-H226 lung, 45.5 µM; with OVCAR-5 ovarian, 92.8 µM; with OVCAR-8 ovarian, more than 94.9 µM; in the experiment on SK-MEL-2 melanoma, more than 100 µM. Besides, the TGI is 35.1 µM with SK-MEL-5 melanoma, more than 100 µM in the experiment on SK-OV-3 ovarian and more than 74 µM with UACC-257 melanoma.

`CCOC(=O)c1cc(=O)n(C)c(=O)n1C`: the TGI with 786-0 renal, with HCC-2998 colon, with NCI-H226 lung, in the experiment with OVCAR-5 ovarian, in the experiment with OVCAR-8 ovarian and in the experiment on SK-MEL-2 melanoma was more than 100 µM each time. The TGI in the experiment on SK-MEL-5 melanoma, in the experiment on SK-OV-3 ovarian and in the experiment on UACC-257 melanoma was more than 100 µM in each case.

`O=C1c2ccccc2C(=O)N1CCCOCc1c[nH]c(=O)[nH]c1=O`: the TGI in the experiment with 786-0 renal, with NCI-H226 lung, in the experiment on OVCAR-5 ovarian, with OVCAR-8 ovarian, in the experiment on SK-MEL-2 melanoma and with SK-MEL-5 melanoma was more than 100 µM each time. The TGI in the experiment on SK-OV-3 ovarian and with UACC-257 melanoma was more than 100 µM each time.
